# Laboratory results published in the supplement of paper PMC10307832.
# What was measured:
# Assay in all cases: relative viability (nuclei count vs DMSO), 5 days (fraction); higher = more cells survive
# [1] = system: HCC-366
# Procedure, shortened: (§1)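 Lung cancer cell lines, seeded in 1536-well plates, were treated the following day by pin tool with a single drug or with five library-drug doses (not always all listed) in √10 steps on top of a fixed anchor-drug dose. Cells were fixed and nuclei stained in one step after 5 days, and nuclei were counted. Relative viability is the nuclei count for treated wells divided by that for vehicle wells, reported as medians of duplicate plates.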
# [2] = system: COR-L 105
# Procedure, shortened: as §1
# [3] = system: EMC-BAC-2
# Procedure, shortened: as §1
# [4] = system: NCI-H1395
# Procedure, shortened: as §1
# [5] = system: NCI-H1437
# Procedure, shortened: as §1
# [6] = system: CAL-12T
# Procedure, shortened: as §1
# [7] = system: NCI-H460
# Procedure, shortened: as §1
# [8] = system: NCI-H522
# Procedure, shortened: as §1
# [9] = system: NCI-H727
# Procedure, shortened: as §1
# [10] = system: NCI-H1755
# Procedure, shortened: as §1
# [11] = system: LCLC-103H
# Procedure, shortened: as §1
# [12] = system: NCI-H1915
# Procedure, shortened: as §1
# [13] = system: NCI-H2009
# Procedure, shortened: as §1
# [14] = system: NCI-H23
# Procedure, shortened: as §1
# [15] = system: NCI-H2228
# Procedure, shortened: as §1
# [16] = system: HOP-62
# Procedure, shortened: as §1
# [17] = system: HCC-827
# Procedure, shortened: as §1
# [18] = system: SW 1573
# Procedure, shortened: as §1
# [19] = system: SK-LU-1
# Procedure, shortened: as §1
# [20] = system: A-427
# Procedure, shortened: as §1
# [21] = system: HARA
# Procedure, shortened: as §1
# [22] = system: NCI-H1792
# Procedure, shortened: as §1
smiles,measurement,setting,value
O=c1cc(-c2cccc3c2Sc2ccccc2S3)oc(N2CCOCC2)c1 + COc1cccc2cc(-c3nc([C@H]4CC[C@H](C(=O)O)CC4)n4ncnc(N)c34)[nH]c12 [OSI-027] (partner 0.5 µM),relative viability,[1]; first compound 0.08 µM,0.89
same,relative viability,[1]; first compound 0.253 µM,1.2
same,relative viability,[1]; first compound 0.8 µM,0.692
same,relative viability,[1]; first compound 2.53 µM,0.723
same,relative viability,[1]; first compound 8 µM,0.775
same,relative viability,[2]; first compound 0.08 µM,0.686
same,relative viability,[2]; first compound 0.253 µM,0.707
same,relative viability,[2]; first compound 0.8 µM,0.636
same,relative viability,[2]; first compound 2.53 µM,0.686
same,relative viability,[2]; first compound 8 µM,0.734
same,relative viability,[3]; first compound 0.08 µM,0.341
same,relative viability,[3]; first compound 0.253 µM,0.416
same,relative viability,[3]; first compound 0.8 µM,0.354
same,relative viability,[3]; first compound 2.53 µM,0.392
same,relative viability,[3]; first compound 8 µM,0.406
same,relative viability,[4]; first compound 0.08 µM,0.594
same,relative viability,[4]; first compound 0.253 µM,0.581
same,relative viability,[4]; first compound 0.8 µM,0.601
same,relative viability,[4]; first compound 2.53 µM,0.577
same,relative viability,[4]; first compound 8 µM,0.683
same,relative viability,[5]; first compound 0.08 µM,0.885
same,relative viability,[5]; first compound 0.253 µM,1.17
same,relative viability,[5]; first compound 0.8 µM,1.01
same,relative viability,[5]; first compound 2.53 µM,0.891
same,relative viability,[5]; first compound 8 µM,1.02
same,relative viability,[6]; first compound 0.08 µM,0.671
same,relative viability,[6]; first compound 0.253 µM,0.709
same,relative viability,[6]; first compound 0.8 µM,0.407
same,relative viability,[6]; first compound 2.53 µM,0.57
same,relative viability,[6]; first compound 8 µM,0.297
same,relative viability,[7]; first compound 0.08 µM,0.605
same,relative viability,[7]; first compound 0.253 µM,0.994
same,relative viability,[7]; first compound 0.8 µM,0.643
same,relative viability,[7]; first compound 2.53 µM,0.568
same,relative viability,[7]; first compound 8 µM,0.527
same,relative viability,[8]; first compound 0.08 µM,0.765
same,relative viability,[8]; first compound 0.253 µM,0.685
same,relative viability,[8]; first compound 0.8 µM,0.722
same,relative viability,[8]; first compound 2.53 µM,0.723
same,relative viability,[8]; first compound 8 µM,0.803
same,relative viability,[9]; first compound 0.08 µM,0.631
same,relative viability,[9]; first compound 0.253 µM,0.673
same,relative viability,[9]; first compound 0.8 µM,0.586
same,relative viability,[9]; first compound 2.53 µM,0.563
same,relative viability,[9]; first compound 8 µM,0.64
same,relative viability,[10]; first compound 0.08 µM,0.71
same,relative viability,[10]; first compound 0.253 µM,0.794
same,relative viability,[10]; first compound 0.8 µM,0.682
same,relative viability,[10]; first compound 2.53 µM,0.553
same,relative viability,[10]; first compound 8 µM,0.772
same,relative viability,[11]; first compound 0.08 µM,0.434
same,relative viability,[11]; first compound 0.253 µM,0.489
same,relative viability,[11]; first compound 0.8 µM,0.504
same,relative viability,[11]; first compound 2.53 µM,0.481
same,relative viability,[11]; first compound 8 µM,0.454
same,relative viability,[12]; first compound 0.08 µM,0.608
same,relative viability,[12]; first compound 0.253 µM,0.677
same,relative viability,[12]; first compound 0.8 µM,0.699
same,relative viability,[12]; first compound 2.53 µM,0.575
same,relative viability,[12]; first compound 8 µM,0.678
same,relative viability,[13]; first compound 0.08 µM,0.627
same,relative viability,[13]; first compound 0.253 µM,0.663
same,relative viability,[13]; first compound 0.8 µM,0.734
same,relative viability,[13]; first compound 2.53 µM,0.575
same,relative viability,[13]; first compound 8 µM,0.553
same,relative viability,[14]; first compound 0.08 µM,0.511
same,relative viability,[14]; first compound 0.253 µM,0.739
same,relative viability,[14]; first compound 0.8 µM,0.519
same,relative viability,[14]; first compound 2.53 µM,0.54
same,relative viability,[14]; first compound 8 µM,0.697
same,relative viability,[15]; first compound 0.08 µM,0.554
same,relative viability,[15]; first compound 0.253 µM,0.719
same,relative viability,[15]; first compound 0.8 µM,0.538
same,relative viability,[15]; first compound 2.53 µM,0.389
same,relative viability,[15]; first compound 8 µM,0.544
same,relative viability,[16]; first compound 0.08 µM,0.888
same,relative viability,[16]; first compound 0.253 µM,1.17
same,relative viability,[16]; first compound 0.8 µM,0.913
same,relative viability,[16]; first compound 2.53 µM,0.745
same,relative viability,[16]; first compound 8 µM,1.07
same,relative viability,[17]; first compound 0.08 µM,0.802
same,relative viability,[17]; first compound 0.253 µM,0.877
same,relative viability,[17]; first compound 0.8 µM,0.947
same,relative viability,[17]; first compound 2.53 µM,0.643
same,relative viability,[17]; first compound 8 µM,0.897
same,relative viability,[18]; first compound 0.08 µM,0.514
same,relative viability,[18]; first compound 0.253 µM,0.797
same,relative viability,[18]; first compound 0.8 µM,0.703
same,relative viability,[18]; first compound 2.53 µM,0.613
same,relative viability,[18]; first compound 8 µM,0.728
same,relative viability,[19]; first compound 0.08 µM,0.322
same,relative viability,[19]; first compound 0.253 µM,0.375
same,relative viability,[19]; first compound 0.8 µM,0.335
same,relative viability,[19]; first compound 2.53 µM,0.364
same,relative viability,[19]; first compound 8 µM,0.301
same,relative viability,[20]; first compound 0.08 µM,0.48
same,relative viability,[20]; first compound 0.253 µM,0.48
same,relative viability,[20]; first compound 0.8 µM,0.573
same,relative viability,[20]; first compound 8 µM,0.475
same,relative viability,[21]; first compound 0.08 µM,0.458
same,relative viability,[21]; first compound 0.253 µM,0.624
same,relative viability,[21]; first compound 0.8 µM,0.566
same,relative viability,[21]; first compound 2.53 µM,0.424
same,relative viability,[21]; first compound 8 µM,0.481
same,relative viability,[22]; first compound 0.08 µM,0.775
same,relative viability,[22]; first compound 0.253 µM,0.803
same,relative viability,[22]; first compound 0.8 µM,0.663
same,relative viability,[22]; first compound 2.53 µM,0.647
same,relative viability,[22]; first compound 8 µM,0.581
